experiment: logP determination via HPLC retention times (calibration with unbranched alkan-2-ones); type: physicochemical; conditions: HPLC on reversed-phase C 18 columns per EEC Directive 79/831 Annex V.A8; acidic mobile phase (0.1% aqueous formic or phosphoric acid) and acetonitrile, linear gradient 10% to 95% acetonitrile
From the text: Die Kalibrierung wurde jeweils mit unverzweigten Alkan-2-onn (3 bis 16 Kohlenstoff Atome) mit bekannten IogP Werten durchgeführt (Bestimmung von den logP Werten über die Retentionszeiten durch lineare Interpolation zwischen zwei bestimmten Alkazionen). Die Lambda-max Werte wurden jeweils in den Maxima der Chromatographie-Signale durch UV Spektren zwischen 190nm und 400nm bestimmt.

chromatographic logP | Compound
3.18 | Cc1ccccc1-c1c(Cl)nnc(C)c1-c1cccs1 [Beispiel 190]

same assay, conditions: HPLC on reversed-phase C 18 columns, EEC Directive 79/831 Annex V.A8; acidic aqueous mobile phase / acetonitrile, linear gradient 10% to 95% acetonitrile

logP | chromatographic logP | Compound
4,01 | – | Cc1nnc(Cl)c(-c2ccccc2Cl)c1-c1ccc(Cl)s1 [Beispiel 58]
– | 4.33 | Cc1nnc(Cl)c(-c2cccc3c2OC(F)(F)O3)c1-c1ccc(Cl)s1 [compound 1]
– | 4.28 | Cc1nnc(Cl)c(-c2ccc(F)cc2Br)c1-c1ccc(Cl)s1 [compound 10]
– | 3.56 | Cc1nnc(Cl)c(-c2ccc(F)cc2Br)c1-c1cccs1 [compound 11]
– | 4.21 | Cc1nnc(Cl)c(-c2ccc(F)cc2Cl)c1-c1ccc(Cl)s1 [compound 38]
– | 4.44 | Cc1nnc(Cl)c(-c2c(Cl)cccc2Cl)c1-c1ccc(Cl)s1 [compound 46]
– | 4.16 | Cc1ccc(-c2c(C)nnc(Cl)c2-c2c(Cl)cccc2Cl)nc1C [compound 47]
– | 3.33 | Cc1nnc(Cl)c(-c2c(F)cccc2Cl)c1-c1cccs1 [compound 55]

same assay, conditions: from retention times, linear interpolation between alkan-2-ones

Compound | logP | chromatographic logP
3-(2-Methyl)-4-(2-thienyl)-5-hydroxy-5-methylfuran-2(5H)-on | 2.59 | –
CC1(O)OC(=O)C(c2cc(F)c(F)cc2F)=C1c1cccs1 (centres unmarked) [3-(2,4,5-Trifluorphonyl)-4-(2-thienyl)-5-hydroxy-5-methylfuran-2(5H)-on] | – | 2.57
Cc1ccc(C2=C(c3cc(F)c(F)cc3F)C(=O)OC2(C)O)nc1C (centres unmarked) [3-(2,4,5-Trilluorphenyl)4-(5,6-Dimethyl-2-pyridyl)-5-hydroxy-5-methylfuran-2(5H)-on] | – | 2.89
CC1(O)OC(=O)C(c2c(Cl)cccc2Cl)=C1c1cccs1 (centres unmarked) [3-(2,6-Dichlorphenyl)-4-(2-thienyl)-5-hydroxy-5-methylfuran-2(5H)-on] | – | 2.57
Cc1ccc(C2=C(c3c(Cl)cccc3Cl)C(=O)OC2(C)O)nc1C (centres unmarked) [3-(2,6-Dichlorphenyl)-4-(5,6-Dimethyl-2-pyridyl)5-hydroxy-5-methylfuran-2(5H)-on] | – | 3.14
CC1(O)OC(=O)C(c2c(F)cccc2F)=C1c1cccs1 (centres unmarked) [3-(2,6-Difluorphenyl)4-(2-thienyl)-5-hydroxy-5-methylfuran-2(5H)-on] | – | 2.39
CC1(O)OC(=O)C(c2c(F)cccc2F)=C1c1ccncc1 (centres unmarked) [3-(2,6-Difluorphenyl)-4-(4-pyridyl)-5-hydroxy-5-methylfuran-2(5H)-on] | – | 1.4
Cc1ccc(C2=C(c3c(F)cccc3F)C(=O)OC2(C)O)nc1C (centres unmarked) [3-(2,6-Difluorphenyl)-4-(5,6-Dimethyl-2-pyridyl)-5-hydroxy-5-methylfuran-2(5H)-on] | – | 2.65
CC1(O)OC(=O)C(c2c(F)cccc2F)=C1c1nccs1 (centres unmarked) [3-(2,6-Difluorphonyl)-4-(2-thiazolyl)-5-hydroxy-5-methylfuran-2(5H)-on] | – | 1.92
CC1(O)OC(=O)C(c2ccc(F)cc2Br)=C1c1cccs1 (centres unmarked) [3-(2-Brom-4-fluorphenyl)-4-(2-thienyl)-5-hydroxy-5-methylfuran-2(5H)-on] | – | 2.64
CC1(O)OC(=O)C(c2ccc(F)cc2Br)=C1c1ccc(Cl)s1 (centres unmarked) [3-(2-Brom-4-fluorphenyl)-4-(5-chlor-2-thienyl)-5-hydroxy-5-methylfuran-2(5H)-on] | – | 3.3
CC1(O)OC(=O)C(c2ccc(F)cc2Cl)=C1c1cccs1 (centres unmarked) [3-(2-Chlor-4-fluorphenyl)-4-(2-thienyl)-5-hydroxy-5-methylfuran-2(5H)-on] | – | 2.68
CC1(O)OC(=O)C(c2ccc(F)cc2Cl)=C1c1ccc(Cl)s1 (centres unmarked) [3-(2-Chlor-4-fluorphenyl)-4-(5-chlor-2-thienyl)-5-hydroxy-5-methylfuran-2(5H)-on] | – | 3.24
CC1(O)OC(=O)C(c2c(F)cccc2Cl)=C1c1cccs1 (centres unmarked) [3-(2-Chlor-6-fluorphenyl)-4-(2-thienyl)-5-hydroxy-5-methylfuran-2(5H)-on] | – | 2.61
CC1(O)OC(=O)C(c2c(F)cccc2Cl)=C1c1ccc(Cl)s1 (centres unmarked) [3-(2-Chlor-6-fluorphenyl)-4-(5-chlor-2-thienyl)-5-hydroxy-5-methylfuran-2(5H)-on] | – | 3.13
CC1(O)OC(=O)C(c2ccccc2Cl)=C1c1cccs1 (centres unmarked) [3-(2-Chlorphenyl)-4-(2-thienyl)-5-hydroxy-5-methylfuran-2(5H)-on] | – | 2.44
CC1(O)OC(=O)C(c2ccccc2Cl)=C1c1ccc(Cl)s1 (centres unmarked) [3-(2-Chlorphenyl)-4-(5-chlor-2-thienyl)-5-hydroxy-5-methylfuran-2(5H)-on] | – | 3.91
CC1(O)OC(=O)C(c2ccccc2F)=C1c1cccs1 (centres unmarked) [3-(2-Fluorphenyl)-4-(2-thienyl)-5-hydroxy-5-methylfuran-2(5H)-on] | – | 2.29

Compound | logP | chromatographic logP
CC1(O)OC(=O)C(c2cccc(Cl)c2)=C1c1cccs1 (centres unmarked) [3-(3-Chlorphenyl)-4-(2-thienyl)-5-hydroxy-5-methylfuran-2(5H)-on] | – | 2.73
CC1(O)OC(=O)C(c2cccc(Cl)c2)=C1c1ccc(Cl)s1 (centres unmarked) [3-(3-Chlorphenyl)-4-(5-chlor-2-thienyl)-5-hydroxy-5-metylfuran-2(5H)-on] | – | 3.38
Cc1n[nH]c(=O)c(-c2c(Cl)cccc2Cl)c1-c1cccs1 [4-(2,6-Dichlorphenyl)-5-(2-thienyl)-6-methylpyridazin-3(2H)-on] | – | 2.43
Cc1ccc(C2=C(c3c(F)cccc3F)C(C)(O)OC2=O)o1 (centres unmarked) [4-(2,6-Difluorphenyl)-3-(5-Methyl-2-furyl)-5-hydroxy-5-methylfuran-2(5H)-on] | 2.35 | –
Cc1n[nH]c(=O)c(-c2ccc(F)cc2Br)c1-c1ccc(Cl)s1 [4-(2-Brom-4-fluorphenyl)-5-(5-chlor-2-thienyl)-6-methylpyridazin-3(2H)-on] | – | 3.03
Cc1n[nH]c(=O)c(-c2ccc(F)cc2Cl)c1-c1ccc(Cl)s1 [4-(2-Chlor-4-fluorphenyl)-5-(5-chlor-2-thienyl)-6-methylpyridazin-3(2H)-on] | – | 2.97
Cc1n[nH]c(=O)c(-c2ccccc2Cl)c1-c1cccs1 [4-(2-Chlorphenyl)-5-(2-thienyl)-6-methylpyridazin-3(2H)-on] | – | 2.19
Cc1n[nH]c(=O)c(-c2ccccc2Cl)c1-c1ccc(Cl)s1 [4-(2-Chlorphenyl)-5-(5-chlor-2-thienyl)-6-methylpyridazin-3(2H)-on] | – | 2.83
Cc1n[nH]c(=O)c(-c2ccccc2F)c1-c1cccs1 [4-(2-Fluorphonyl)-5-(2-thienyl)-6-methylpyridazin-3(2H)-on] | – | 2.06
Cc1n[nH]c(=O)c(-c2cccc(Cl)c2)c1-c1ccc(Cl)s1 [4-(3-Chlorphenyl)-5-(5-chlor-2-thienyl)-6-methylpyridazin-3(2H)-on] | – | 3.04
CC1(O)OC(=O)C(c2cccc3c2OC(F)(F)O3)=C1c1ccc(Cl)s1 (centres unmarked) [4-(5-Chlor-2-thienyl)-3-(2,2-difluor-1,3-benzodioxol-4-yl)-5-hydroxy-5-methylfuran-2(5H)-on] | – | 3.41
CC1(O)OC(=O)C(c2c(Cl)cccc2Cl)=C1c1ccc(Cl)s1 (centres unmarked) [4-(5-Chlor-2-thienyl)-3-(2,6-dichlorphenyl)-5-hydroxy-5-methylfuran-2(5H)-on] | – | 3.26
CC1(O)OC(=O)C(c2c(F)cccc2F)=C1c1ccc(Cl)s1 (centres unmarked) [4-(5-Chlor-2-thienyl)-3-(2,6-difluorphonyl)-5-hydroxy-5-methylfuran-2(5H)-on] | – | 2.94
CC1(O)OC(=O)C(c2ccccc2F)=C1c1ccc(Cl)s1 (centres unmarked) [4-(5-Chlor-2-thienyl)-3-(2-fluorphenyl)-5-hydroxy-5-methylfuran-2(5H)-on] | – | 2.93
CC1(O)OC(=O)C(c2cc(F)c(F)cc2F)=C1c1ccc(Cl)s1 (centres unmarked) [4.(5-Chlor-2-thienyl)-3-(2,4,5-trifluorphenyl)-5-hydroxy-5-methylfuran-2(5H)-on] | – | 3.17
Cc1n[nH]c(=O)c(-c2c(F)cccc2F)c1-c1nccs1 [5-(2-Thiazolyl)-4-(2,6-difluorphenyl)-6-methylpyridazin-3(2H)-on] | – | 1.57
Cc1n[nH]c(=O)c(-c2cc(F)c(F)cc2F)c1-c1cccs1 [5-(2-thienyl)-4-(2,4,5-trifluorphenyl)-6-methylpyridazin-3(2H)-on] | – | 2.32

The next lines start with the values.

logP | chromatographic logP | Compound
– | 0.93 | Cc1n[nH]c(=O)c(-c2c(F)cccc2F)c1-c1ccncc1 [5-(4-Pyridyl)4-(2,6-difluorphenyl)-6-methylpyridazin-3(2H)-on]
– | 2.06 | Cc1ccc(-c2c(C)n[nH]c(=O)c2-c2cc(F)c(F)cc2F)nc1C [5-(5,6-Dimethyl-2-pyridyl)-4-(2,4,5-trifluorphenyl)-6-methylpyridazin-3(2H)-on]
– | 2.11 | Cc1ccc(-c2c(C)n[nH]c(=O)c2-c2c(Cl)cccc2Cl)nc1C [5-(5,6-Dimethyl-2-pyridyl)-4-(2,6-dichlorphenyl)-6-methylpyridazin-3(2H)-on]
– | 3.18 | Cc1n[nH]c(=O)c(-c2cccc3c2OC(F)(F)O3)c1-c1ccc(Cl)s1 [5-(5-Chlor-2-thienyl)-4-(2,2-difluor-1,3-benzodioxol-4-yl)-6-methylpyridazin-3(2H)-on]
– | 2.88 | Cc1n[nH]c(=O)c(-c2cc(F)c(F)cc2F)c1-c1ccc(Cl)s1 [5-(5-Chlor-2-thienyl)-4-(2,4,5-trifluorphanyl)-6-methylpyridazin-3(2H)-on]
– | 3.11 | Cc1n[nH]c(=O)c(-c2c(Cl)cccc2Cl)c1-c1ccc(Cl)s1 [5-(5-Chlor-2-thienyl)-4-(2,6-dichlorphenyl)-6-methylpyridazin-3(2H)-on]
– | 2.64 | Cc1n[nH]c(=O)c(-c2ccccc2F)c1-c1ccc(Cl)s1 [5-(5-Chlor-2-thienyl)-4-(2-fluorphenyl)-6-methylpyridazin-3(2H)-on]
– | 2.19 | Cc1ccc(-c2c(C)n[nH]c(=O)c2-c2c(F)cccc2F)o1 [5-(5-Methyl-2-furyl)-4-(2,6-difluorphenyl)-6-methylpyridazin-3(2H)-on]
– | 4.01 | Cc1nnc(Cl)c(-c2ccccc2Cl)c1-c1ccc(Cl)s1 [Beispiel 58]

Source: patent publication EP1972623A1, “Arylpyridazines as fungicides” (Bayer CropScience AG, priority 2007, dated 2008)
